Measurements from article PMC6804443 (Acta Pharmaceutica Sinica. B, 2019).

Experiments:
[1] = XueBiJing compounds, cited from earlier work; for LogD(7.4): pH 7.4
[2] = system: P450 enzymes, UGTs, SULTs, OATP1B1/1B3, OAT1/3, OCT2, MATE1/2-K, MDR1, BCRP; settings: cited from earlier work
[3] = cited from earlier work; for fu-p (unbound fraction in plasma): human plasma
[4] = XueBiJing compounds; cited from earlier work
UGT2B15 = target: T1, UGT2B15 (Homo sapiens, UniProt P54855); settings: read-out: Km as UGT2B15 substrate; cited from earlier work
T1 sequence (P54855 24-530): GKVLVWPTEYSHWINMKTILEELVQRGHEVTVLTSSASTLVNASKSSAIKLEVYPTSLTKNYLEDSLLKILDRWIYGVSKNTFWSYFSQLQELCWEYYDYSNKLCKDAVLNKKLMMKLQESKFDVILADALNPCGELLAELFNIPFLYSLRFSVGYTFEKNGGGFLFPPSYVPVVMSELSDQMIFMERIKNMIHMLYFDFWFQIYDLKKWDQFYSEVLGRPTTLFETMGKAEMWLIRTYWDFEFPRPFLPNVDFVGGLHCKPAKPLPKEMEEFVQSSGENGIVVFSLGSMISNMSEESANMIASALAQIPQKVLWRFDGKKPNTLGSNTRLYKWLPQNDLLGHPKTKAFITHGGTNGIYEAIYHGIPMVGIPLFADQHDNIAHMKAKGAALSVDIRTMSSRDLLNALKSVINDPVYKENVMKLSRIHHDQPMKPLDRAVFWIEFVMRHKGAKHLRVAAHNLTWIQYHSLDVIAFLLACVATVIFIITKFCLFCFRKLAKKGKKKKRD

[5] = ref Supporting Information Table S2; cited from earlier work
[6] = system: human drug metabolizing enzymes and transporters; experiment: Inhibitory DDI index of XueBiJing compounds as perpetrators; settings: XueBiJing at label dose; range over the named compounds
CYP1A2 = settings: higher concentrations; range over the named compounds and enzymes
CYP3A4 = settings: higher concentrations; range over the named compounds and enzymes
[7] = assay type: in vivo; settings: human; XueBiJing at label dose 100 mL
OAT3 = target: T2, OAT3 (Homo sapiens, UniProt Q8TCC7); assay type: in vitro ADME
T2 sequence (Q8TCC7 1-542): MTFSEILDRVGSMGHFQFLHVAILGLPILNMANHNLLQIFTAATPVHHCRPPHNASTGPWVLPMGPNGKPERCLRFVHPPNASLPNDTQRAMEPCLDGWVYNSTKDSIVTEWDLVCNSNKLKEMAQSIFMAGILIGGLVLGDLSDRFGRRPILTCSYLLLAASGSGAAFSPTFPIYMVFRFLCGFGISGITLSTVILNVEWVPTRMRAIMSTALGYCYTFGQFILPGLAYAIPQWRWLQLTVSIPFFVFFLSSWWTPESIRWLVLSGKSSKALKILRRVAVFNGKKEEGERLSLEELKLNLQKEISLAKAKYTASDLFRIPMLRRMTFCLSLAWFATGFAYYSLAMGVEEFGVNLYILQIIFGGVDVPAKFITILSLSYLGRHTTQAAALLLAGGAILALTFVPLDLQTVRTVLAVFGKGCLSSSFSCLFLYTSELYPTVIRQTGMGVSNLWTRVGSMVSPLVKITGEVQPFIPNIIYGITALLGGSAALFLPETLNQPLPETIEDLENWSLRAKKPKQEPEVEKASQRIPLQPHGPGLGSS

[8] = human, XueBiJing 100 mL via 75-min intravenous infusion

Row | DDI index for inhibition of CYP2C9, CYP2C19, OATP1B1, OATP1B3, OAT1 and/or OAT3 [6] | mRNA-T/U ratio, CYP1A2 (CYP1A2) | mRNA-T/U ratio, CYP3A4 (CYP3A4) | Unbound Cmax [7] | IC50 (OAT3) | Structure (SMILES) | pKa [1] | LogD(7.4) [1] | Related metabolism and transport data (substrate status) [2] | fu-p (unbound fraction in plasma) [3] | Cmax [3, 8] | VSS [3, 8] | t1/2 [3, 8] | Major elimination route ([3]; human) | Membrane permeability [4] | Km (UGT2B15) | Effective concentration(s) [5]
1 |  |  |  |  |  | CCC/C=C1\OC(=O)C2=C1CC[C@@H](O)[C@@H]2O [X5, senkyunolide I] | 12.8 | 0.8 | Highly selective UGT2B15 substrate | 54% | 400 nM | 1.26 L/kg | 48 min | Hepatic glucuronidation, to form senkyunolide I-7-O-β-glucuronide (X6) (This results in formation of a glutathione conjugate, suggesting formation of electrophilic metabolite.) | Good | 18.4 µM | 
2 | 0.00003–0.06 | 4.0 to 9.6 | 4.0 to 9.6 | 30 nM | 28 ± 7 µM | O=C(O)c1ccc(O)c(O)c1 [X11, protocatechuic acid] | 4.5 | −1.9 |  | 79% | 40 nM |  | 30 min | Hepatic methylation and sulfation | Intermediate |  | 1 to 130 µmol/L
